Test results from patent US7595401B2, “Therapeutic compounds and their use in cancer” (Myriad Pharmaceuticals, Inc., priority 2006, dated 2009).

system: purified human Hsp90; experiment: Binding Assay: fluorescence polarization with BODIPY-labeled geldanamycin; conditions: 5 μM compound, BODIPY-GM 10 nM, Hsp90 30 nM
Method in brief: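 Compounds in 2% DMSO final compete with 10 nM BODIPY-GM for 30 nM purified human Hsp90, incubated overnight at room temperature in pH 7.3 HEPES buffer containing Na2MoO4 and DTT. Polarization (mP, ex/em 485/530) normalized to DMSO gives percent inhibition; autofluorescence-confounded data excluded.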

In order of rising “% Inhibition at 5 μM Compound Concentration” value:
1. COc1cc(CCn2cnc(N)c3nc(Sc4cc5c(cc4Br)OCO5)nc2-3)cc(OC)c1OC [Example 92, 8-(6-bromo-benzo[1,3]dioxol-5-ylsulfanyl)-3-[2-(3,4,5-trimethoxy-phenyl)-ethyl]-3H-purin-6-ylamine]  0%
2. Cc1ccc(CCn2cnc(N)c3nc(Sc4cc5c(cc4Br)OCO5)nc2-3)cc1 [Example 164, 8-(6-bromo-benzo[1,3]dioxol-5-ylsulfanyl)-3-(2-p-tolyl-ethyl)-3H-purin-6-ylamine]  0%
3. Nc1ncn(CCn2cnc3ccccc3c2=O)c2nc(Sc3cc4c(cc3Br)OCO4)nc1-2 [Example 270, 3-(2-{6-Amino-8-[(6-bromo-1,3-benzodioxol-5-yl)thio]-3H-purin-3-yl}ethyl)quinazolin-4(3 H)-one]  7.0%
4. COc1ccc(OC)c(Sc2nc3c(N)ncnc3n2CC(c2ccccc2)C2CCCCC2)c1 (stereo not shown) [Example 179, 9-(2-Cyclohexyl-2-phenyl-ethyl)-8-(2,5-dimethoxy-phenylsulfanyl)-9H-purin-6-ylamine]  8%
5. Nc1ncn(CC(O)c2ccc(Cl)cc2Cl)c2nc(Sc3cc4c(cc3Br)OCO4)nc1-2 (stereo not shown) [Example 178, 2-[6-amino-8-(6-bromo-benzo[1,3]dioxol-5-ylsulfanyl)-purin-3-yl]-1-(2,4-dichloro-phenyl)-ethanol]  9%
6. CC(C)(C)n1nnnc1N1CCC(CCn2cnc(N)c3nc(Sc4cc5c(cc4Br)OCO5)nc2-3)CC1 [Example 615, 8-[(6-Bromo-1,3-benzodioxol-5-yl)thio]-3-{2-[1-(1-tert-butyl-1 H-tetrazol-5-yl)piperidin-4-yl]ethyl}-3 H-purin-6-amine]  13.00%
7. CC(C)(C)OC(=O)NC(CCn1cnc(N)c2nc(Sc3cc4c(cc3Br)OCO4)nc1-2)C1CCCC1 (stereo not shown) [Example 680, {3-[6-Amino-8-(6-bromo-benzo[1,3]dioxol-5-ylsulfanyl)-purin-3-yl]-1-cyclopentyl-propyl}-carbamic acid tert-butyl ester]  14%
8. CS(=O)(=O)N1CCCCC1CCn1cnc(N)c2nc(Sc3cc4c(cc3Br)OCO4)nc1-2 (stereo not shown) [Example 373, 8-[(6-Bromo-1,3-benzodioxol-5-yl)thio]-3-{2-[1-(methylsulfonyl)piperidin-2-yl]ethyl}-3H-purin-6-amine]  15%
9. CCC(C)C(Cn1cnc(N)c2nc(Sc3cc(OC)ccc3OC)nc1-2)c1ccccc1 (stereo not shown) [Example 106, 8-(2,5-dimethoxy-phenylsulfanyl)-3-(3-methyl-2-phenyl-pentyl)-3H-purin-6-ylamine]  41%
10. Nc1ncnc2c1nc(Sc1ccc3c(c1)OCO3)n2CCc1ccccc1 [Example 4, 8-(Benzo[1,3]dioxol-5-ylsulfanyl)-9-phenethyl-9H-purin-6-ylamine]  75%

With `Cc1ccc(CCn2c(Sc3cc4c(cc3Br)OCO4)nc3c(N)ncnc32)cc1` [Example 163, 8-(6-Bromo-benzo[1,3]dioxol-5-ylsulfanyl)-9-(2-p-tolyl-ethyl)-9H-purin-6-ylamine] the “% Inhibition at 5 μM Compound Concentration” value was >10%.

same assay, conditions: BODIPY-GM 10 nM, Hsp90 30 nM

Compared with `Nc1ncnc2c1nc(Sc1cc3c(cc1Br)OCO3)n2CCCC1CCCCN1` (stereo not shown) [Example 646, 8-[(6-bromo-1,3-benzodioxol-5-yl)thio]-9-(3-piperidin-2-ylpropyl)-9H-purin-6-amine], `CCOC(=O)N1CCCCC1CCn1c(Sc2cc3c(cc2Br)OCO3)nc2c(N)ncnc21` (stereo not shown) [Example 339, Ethyl 2-(2-{6-amino-8-[(6-bromo-1,3-benzodioxol-5-yl)thio]-9H-purin-9-yl}ethyl)piperidine-1-carboxylate] is 1.9-fold higher in IC50: 60 nM for the first, 115 nM for the second.

First: CCNC(=O)N1CCC(CCn2c(Sc3cc4c(cc3Br)OCO4)nc3c(N)ncnc32)CC1 [Example 431, 4-(2-{6-Amino-8-[(6-bromo-1,3-benzodioxol-5-yl)thio]-9H-purin-9-yl}ethyl)-N-ethylpiperidine-1-carboxamide]
Second: CC(C)(C)C(=O)N1CCC(CCn2c(Sc3cc4c(cc3Br)OCO4)nc3c(N)ncnc32)CC1 [Example 451, 8-[(6-Bromo-1,3-benzodioxol-5-yl)thio]-9-{2-[1-(2,2-dimethylpropanoyl)piperidin-4-yl]ethyl}-9H-purin-6-amine]
The IC50 of the first is 1.5-fold lower: 130 nM for the first, 195 nM for the second.

Compared with `COc1ccc(CN2CCCCC2CCn2c(Sc3cc4c(cc3Br)OCO4)nc3c(N)ncnc32)cc1` (stereo not shown) [Example 590, 8-[(6-Bromo-1,3-benzodioxol-5-yl)thio]-9-{2-[1-(4-methoxybenzyl)piperidin-2-yl]ethyl}-9 H-purin-6-amine], `COc1ccc(CCn2c(Sc3cc4c(cc3Br)OCO4)nc3c(N)ncnc32)cc1` [Example 250, 8-[(6-Bromo-1,3-benzodioxol-5-yl)thio]-9-[2-(4-methoxyphenyl)ethyl]-9H-purin-6-amine] is 1.8-fold higher in IC50: 500 nM for the first, 900 nM for the second. The first is the more potent here.

Compared with `CC(=O)Nc1ccc(Sc2nc3c(N)ncnc3n2CCC2CCN(C=O)CC2)c(Cl)c1` [Example 548, N-[4-({6-Amino-9-[2-(1-formylpiperidin-4-yl)ethyl]-9 H-purin-8-yl}thio)-3-chlorophenyl]acetamide], `COCc1cc2c(cc1Sc1nc3c(N)ncnc3n1CCC1CCN(C=O)CC1)OCO2` [Example 624, 4-[2-(6-Amino-8-{[6-(methoxymethyl)-1,3-benzodioxol-5-yl]thio}-9 H-purin-9-yl)ethyl]piperidine-1-carbaldehyde] is lower in IC50: > 5000 nM for the first, 580 nM for the second. The second is the more potent here.

Compared with `CC(C)(N)C(=O)N1CCC(CCn2c(Sc3cc4c(cc3Br)OCO4)nc3c(N)ncnc32)CC1` [Example 750, 9-{2-[1-(2-Amino-2-methylpropanoyl)piperidin-4-yl]ethyl}-8-[(6-bromo-1,3-benzodioxol-5-yl)thio]-9H-purin-6-amine], `C[C@@H](NC(=O)OC(C)(C)C)C(=O)N1CCC(CCn2c(Sc3cc4c(cc3Br)OCO4)nc3c(N)ncnc32)CC1` [Example 695, tert-Butyl{(1R)-2-[4-(2-{6-amino-8-[(6-bromo-1,3-benzodioxol-5-yl)thio]-9H-purin-9-yl}ethyl)piperidin-l-yl]-1-methyl-2-oxoethyl}carbamate] is 2.3-fold higher in IC50: 180 nM for the first, 410 nM for the second. The first is the more potent here.

Going from `COc1cccc(Sc2nc3c(N)ncn(CCc4ccccc4)c-3n2)c1` [Example 288, 8-[(3-Methoxyphenyl)thio]-3-(2-phenylethyl)-3H-purin-6-amine] to `COc1cccc(CCn2cnc(N)c3nc(Sc4cc(OC)ccc4OC)nc2-3)c1` [Example 36, 8-(2,5-dimethoxy-phenylsulfanyl)-3-[2-(3-methoxy-phenyl)-ethyl]-3H-purin-6-ylamine], the IC50 rises from 4000 nM to > 5000 nM.

Going from `CC(C)(C)OC(=O)Nc1ccc(CCn2c(Sc3cc4c(cc3Br)OCO4)nc3c(N)ncnc32)cc1` [Example 211, (4-{2-[6-Amino-8-(6-bromo-benzo[1,3]dioxol-5-ylsulfanyl)-purin-9-yl]-ethyl}-phenyl)carbamic acid tert-butyl ester] to `Nc1ncnc2c1nc(Sc1cc3c(cc1Br)OCO3)n2CCc1ccc(F)cc1` [Example 249, 8-[(6-Bromo-1,3-benzodioxol-5-yl)thio]-9-[2-(4-fluorophenyl)ethyl]-9H-purin-6-amine], the IC50 falls from > 25000 nM to 100 nM. The second is the more potent here.

Compared with `COc1ccc(OC)c(Sc2nc3c(N)ncnc3n2CCc2c(C)cc(C)cc2C)c1` [Example 55, 8-(2,5-Dimethoxy-phenylsulfanyl)-9-[2-(2,4,6-trimethyl-phenyl)-ethyl]-9H-purin-6-ylamine], `COc1ccc(OC)c(Sc2nc3c(N)ncnc3n2CCc2cc(C)ccc2C)c1` [Example 115, 8-(2,5-Dimethoxy-phenylsulfanyl)-9-[2-(2,5-dimethyl-phenyl)-ethyl]-9H-purin-6-ylamine] is 15-fold lower in IC50: 1700 nM for the first, 110 nM for the second.

First: CC(C)(C)OC(=O)NC(CCn1c(Sc2cc3c(cc2Br)OCO3)nc2c(N)ncnc21)C1CCOCC1 (stereo not shown) [Example 682, [3-[6-Amino-8-(6-bromo-benzo[1,3]dioxol-5-ylsulfanyl)-purin-9-yl]-1-(tetrahydro-pyran-4-yl)-propyl]-carbamic acid tert-butyl ester]
Second: Nc1ncnc2c1nc(Sc1cc3c(cc1Br)OCO3)n2CCN1CCOC1=O [Example 586, 3-(2-{6-Amino-8-[(6-bromo-1,3-benzodioxol-5-yl)thio]-9 H-purin-9-yl}ethyl)-1,3-oxazolidin-2-one]
The IC50 of the first is 2.4-fold lower: 190 nM for the first, 450 nM for the second.

Compared with `COc1cc(Sc2nc3c(N)ncnc3n2CCc2ccccc2)cc(OC)c1OC` [Example 45, 9-Phenethyl-8-(3,4,5-trimethoxy-phensulfanyl)-9H-purin-6-ylamine], `Nc1ncnc2c1nc(Sc1ccc3c(c1)OCO3)n2CCc1ccccc1` [Example 4, 8-(Benzo[1,3]dioxol-5-ylsulfanyl)-9-phenethyl-9H-purin-6-ylamine] is 12-fold lower in IC50: 8100 nM for the first, 650 nM for the second.

Compared with `COc1ccc(OC)c(Sc2nc3c(N)ncnc3n2CCc2c(F)cccc2Cl)c1` [Example 122, 9-[2-(2-chloro-6-fluoro-phenyl)-ethyl]-8-(2,5-dimethoxy-phenylsulfanyl)-9H-purine-6-ylamine], `N#Cc1cc2c(cc1Sc1nc3c(N)ncnc3n1CCc1ccccc1)OCO2` [Example 320, 6-{[6-Amino-9-(2-phenylethyl)-9H-purin-8-yl]thio}-1,3-benzodioxole-5-carbonitrile] is 2.8-fold higher in IC50: 85 nM for the first, 240 nM for the second.

Compared with `CC(=O)N1CCC(CCn2c(Sc3cc(Br)c4c(c3)CCO4)nc3c(N)ncnc32)CC1` [Example 530, 9-[2-(1-Acetylpiperidin-4-yl)ethyl]-8-[(7-bromo-2,3-dihydro-1-benzofuran-5-yl)thio]-9 H-purin-6-amine], `Nc1ncnc2c1nc(Sc1cc3c(cc1Br)OCO3)n2CCC1CCN(C(=O)C2CCCC2)CC1` [Example 510, 8-[(6-Bromo-1,3-benzodioxol-5-yl)thio]-9-{2-[1-(cyclopentylcarbonyl)piperidin-4-yl]ethyl}-9 H-purin-6-amine] is 10-fold lower in IC50: 2500 nM for the first, 250 nM for the second. The second is the more potent here.

First: Nc1ncnc2c1nc(Sc1cc3c(cc1Br)OCO3)n2CCC1CCCN(S(=O)(=O)C(F)(F)F)C1 (stereo not shown) [Example 402, 8-[(6-Bromo-1,3-benzodioxol-5-yl)thio]-9-(2-{1-[(trifluoromethyl)sulfonyl]piperidin 3-yl}ethyl)-9H-purin-6-amine]
Second: COc1ccc(OC)c(Sc2nc3c(N)ncn(CCN4CCCCC4)c-3n2)c1 [Example 490, 8-[(2,5-Dimethoxyphenyl)thio]-3-(2-piperidin-1-ylethyl)-3 H-purin-6-amine]
The IC50 of the first is 42-fold lower: 590 nM for the first, 25000 nM for the second. The first is the more potent here.
